Data published in article PMC12305494, “Discovery of PXR Antagonist MI891 and PXR Degrader MI1013 and Their Roles in Hepatic Gene Regulation” (Journal of Medicinal Chemistry, 2025).

What was measured:
human CAR LBD [1] = target: T1, human CAR LBD (Homo sapiens, UniProt Q14994); assay: LanthaScreen TR-FRET CAR Coactivator assay; format: biochemical; conditions: nb = no binding
T1 sequence (Q14994 103-352): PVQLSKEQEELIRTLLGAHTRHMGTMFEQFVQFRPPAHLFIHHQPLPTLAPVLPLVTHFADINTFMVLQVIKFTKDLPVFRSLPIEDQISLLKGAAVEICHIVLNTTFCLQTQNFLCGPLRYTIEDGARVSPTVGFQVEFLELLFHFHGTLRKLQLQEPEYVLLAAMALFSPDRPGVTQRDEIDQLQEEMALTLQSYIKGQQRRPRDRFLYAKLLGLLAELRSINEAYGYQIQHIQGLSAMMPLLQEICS
Procedure: We utilized the LanthaScreen TR-FRET CAR Coactivator Binding Assay Kit, goat (Thermo Fisher Scientific, Cat. No. PV4836), which includes GST-tagged human CAR LBD and a fluorescein-labeled PGC1α coactivator peptide. The assay was performed with slight modifications to the manufacturer’s protocol, as previously reported. […] The interaction with the PXR ligand-binding domain (LBD) was assessed using the LanthaScreen TR-FRET PXR Competitive Binding Assay (Thermo Fisher Scientific, PV4839), as previously described. This assay quantifies the ability of test compounds to displace a fluorescent PXR ligand from the receptor. Fluorescence readings were taken on a Synergy 2 Multi-Mode Microplate Reader (BioTek, Winooski, VT). The half-maximal inhibitory concentration (IC50) for PXR LBD was calculated from at least eight data points using GraphPad Prism software.

human CAR LBD [2] = target: T2, human CAR LBD (Homo sapiens, UniProt Q14994); assay: CAR LBD assembly assay (CAR AA); format: cell-based; conditions: na = no activity; tox = cytotoxicity in HepG2 cells
T2 construct: constructs encoding helices 3–12 and helix 1 of human CAR LBD; expressed in transfected cells; host or cells: HepG2
T2 sequence (Q14994 103-150 isoform Q14994-2 limits assumed): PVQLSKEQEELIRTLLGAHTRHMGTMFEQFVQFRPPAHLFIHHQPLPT
T2 sequence (Q14994 151-348 isoform Q14994-2 limits assumed): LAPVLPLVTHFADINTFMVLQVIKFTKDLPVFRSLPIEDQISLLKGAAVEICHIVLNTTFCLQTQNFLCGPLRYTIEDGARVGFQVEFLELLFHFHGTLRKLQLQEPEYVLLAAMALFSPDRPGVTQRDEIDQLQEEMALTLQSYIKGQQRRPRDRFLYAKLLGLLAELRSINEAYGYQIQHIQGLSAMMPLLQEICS
Source text: The CAR LBD assembly assay used constructs encoding helices 3–12 and helix 1 of human CAR LBD as described before. GL4.31[luc2P/GAL4UAS/Hygro] (pGAL4 UAS-luc) luciferase reporter vector and pRL-TK Renilla expression vector (Promega) were used in the assay in HepG2 cells transfected using Lipofectamine 3000.

PXR [3] = target: T3, PXR (Homo sapiens, UniProt O75469); assay: cell-based; conditions: PXR antagonism: PXR inhibition (IC50, μM), antagonist mode with 10 μM rifampicin; mean ± SD, n = 3
T3 sequence (O75469 1-434): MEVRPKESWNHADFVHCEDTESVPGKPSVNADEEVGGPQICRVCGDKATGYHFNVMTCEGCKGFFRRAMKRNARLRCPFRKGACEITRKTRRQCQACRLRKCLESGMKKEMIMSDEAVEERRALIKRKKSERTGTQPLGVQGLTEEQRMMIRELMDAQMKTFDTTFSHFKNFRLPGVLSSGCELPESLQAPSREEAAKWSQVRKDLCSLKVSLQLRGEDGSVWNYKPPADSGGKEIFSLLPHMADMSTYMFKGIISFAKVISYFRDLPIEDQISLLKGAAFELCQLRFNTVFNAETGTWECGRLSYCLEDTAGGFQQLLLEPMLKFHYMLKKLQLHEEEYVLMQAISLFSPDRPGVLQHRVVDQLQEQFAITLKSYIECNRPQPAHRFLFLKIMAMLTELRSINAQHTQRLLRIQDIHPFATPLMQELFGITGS

PXR [4] = target: T3, PXR; assay: PXR-responsive CYP3A4 promoter luciferase reporter assay in HepG2, inverse agonist mode (basal activity); format: cell-based; set-up: expressed in transfected cells; host or cells: HepG2; conditions: tested at 10 μM, DMSO (0.1%) = 100% basal activity
Procedure: Rhesus monkey, mouse, and rat PXR expression vectors (100 ng/well each) were also obtained from GenScript. […] Carlberg (University of Kuopio, Kuopio, Finland).
The cells were cultured in DMEM medium (Merck) supplemented with 10% fetal bovine serum.

PXR [5] = target: T4, PXR (Homo sapiens, UniProt O75469+Q96SW2); assay: Western blot of PXR in differentiated HepaRG cells; format: cell-based; conditions: 24 h
T4 construct: differentiated hepatic HepaRG cells, which naturally express high PXR activity and expression; endogenous in cells; host or cells: differentiated HepaRG
T4 sequence (Q96SW2 whole entry, one chain of several): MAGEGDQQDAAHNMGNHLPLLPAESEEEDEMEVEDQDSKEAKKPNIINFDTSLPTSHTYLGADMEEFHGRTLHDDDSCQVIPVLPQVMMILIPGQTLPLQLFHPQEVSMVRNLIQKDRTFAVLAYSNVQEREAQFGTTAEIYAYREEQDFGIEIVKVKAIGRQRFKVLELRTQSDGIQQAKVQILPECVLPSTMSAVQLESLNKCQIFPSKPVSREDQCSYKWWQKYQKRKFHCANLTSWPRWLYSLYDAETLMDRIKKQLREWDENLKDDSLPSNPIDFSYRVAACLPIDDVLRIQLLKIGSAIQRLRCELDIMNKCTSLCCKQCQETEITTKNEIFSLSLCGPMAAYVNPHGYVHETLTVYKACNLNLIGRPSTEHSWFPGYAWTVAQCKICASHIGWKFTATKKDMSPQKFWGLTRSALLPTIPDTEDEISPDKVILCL
Procedure: The harvested HepaRG cells were lysed in RIPA lysis buffer (Cat. no 89900, Thermo Scientific) containing Halt protease inhibitor cocktail inhibitors (Thermo Scientific). Protein concentration was measured using the Pierce BCA Protein Assay Kit (Cat. no. 23225, Thermo Scientific), samples were diluted in 4 × Laemmli sample buffer (Cat. no. 1610747, BioRad) supplemented with mercaptoethanol and heated at 95 °C for 5 min. Equal amounts of protein were loaded in 4–20% Mini-PROTEAN TGX Stain-Free Protein Gels (12 well. cat. no. 4561095 or 15 well, cat. no. 4568096, Bio-Rad), electrophorised, and transferred onto Trans-Blot Turbo Midi-size PVDF Membrane (cat. no. 1704273, Bio-Rad), and blocked with EveryBlot Blocking buffer for 10 min (cat. no. 12010020, Bio-Rad). The membranes were incubated overnight at 4 °C with the following antibodies: PXR polyclonal antibody (1:500, PA5–41170, Invitrogen), RXRA polyclonal antibody (1:1000, 21218–1-AP, Proteintech), and GSPT1 polyclonal antibody (1:1000, 10763-a-AP, Proteintech), washed with TBS-T for 3 times, and followed by incubation with goat antirabbit IgG (H + L) Secondary antibody, HRP (1:200, 000, 1 h, cat. no. 31460, Invitrogen). Chemiluminescence signals were detected using SuperSignal West Femto Maximum Sensitivity Substrate (cat. no. 34096, Thermo Scientific) and visualized by the ChemiDoc MP Imaging system (Universal Hood III, #731BR02821, Bio-Rad), and the bands were quantified using β-actin (1:2000, recombinant rabbit conjugated monoclonal antibody (JF53-10), cat. no. MA5-32540, Invitrogen) as loading control with ImageJ (version 1.54g) software.

[6] = Plasma stability, mouse plasma; format: in vitro ADME; conditions: up to 120 min, read-out: Plasma stability, t1/2 (min), mouse
Procedure: The protocols and reagents for the plasma protein binding assay and metabolic stability testing in human and mouse liver microsomes are detailed in our previous report. Briefly, metabolic stability of compounds was assessed at a single concentration (5 μM) at t = 0, 10, 30, and at t = 45 min. The stability of compounds was tested in human and mouse microsomes (ThermoFisher Scientific). Compounds were tested in triplicate with or without NADPH wells as a negative control for cytochrome P450 metabolism. In addition to hepatic metabolism, compounds were also subjected to degradation/modification by enzymes in human (VWR International) and mouse (Biomedica, CZ) plasma for t = 0, 30, 60, and at t = 120 min. Each assay included a substrate with known activity as a positive control. Time points were analyzed by LC/MS/MS. The peak area for the parent compound is compared to the time zero sample in order to assess the amount of remaining compound.

Row | IC50 (PXR [3]) [µM] | Compound | EC50 (human CAR LBD [2]) [µM] | other results
1 | 25.4 ± 3.5 | CC(c1ccc(Cl)c(C(N)=O)c1)n1cc(-c2c(-c3ccc(Cl)cc3)nc3ccccn23)nn1 (centres unmarked) [Compound 2, 2-Chloro-5-(1-(4-(2-(4-chlorophenyl)imidazo[1,2-a]pyridin-3-yl)-1H-1,2,3-triazol-1-yl)ethyl)benzamide] | 5.3 ± 0.3 | EC50 (human CAR LBD [1]): > 5 µM
2 | > 100 | NC(=O)c1cc(Cn2cc(-c3c(-c4ccncc4)nc4ccccn34)nn2)ccc1Cl [Compound 3, 2-Chloro-5-((4-(2-(pyridine-4-yl)imidazo[1,2-a]pyridine-3-yl)-1H-1,2,3-triazol-1-yl)methyl)benzamide] | – | CAR TR-FRET (EC50, μM) (human CAR LBD [1]): nb
3 | 5.76 ± 2.6 | NC(=O)c1cc(Cn2cc(-c3c(-c4ccc(C5CC5)cc4)nc4ccccn34)nn2)ccc1Cl [Compound 4, 2-Chloro-5-((4-(2-(4-cyclopropylphenyl)imidazo[1,2-a]pyridin-3-yl)-1H-1,2,3-triazol-1-yl)methyl)benzamide] | > 20 | CAR TR-FRET (EC50, μM) (human CAR LBD [1]): nb
4 | > 100 | CNC(=O)c1cc(Cc2nnc(-c3c(-c4ccc(Cl)cc4)nc4ccccn34)o2)ccc1Cl [Compound 5, 2-Chloro-5-((5-(2-(4-chlorophenyl)imidazo[1,2-a]pyridin-3-yl)-1,3,4-oxadiazol-2-yl)methyl)-N-methylbenzamide] | 1.02 ± 0.2 | EC50 (human CAR LBD [1]): 0.401 µM
5 | > 100 | CNC(=S)c1cc(Cc2nnc(-c3c(-c4ccc(Cl)cc4)nc4ccccn34)o2)ccc1Cl [Compound 6, 2-Chloro-5-((5-(2-(4-chlorophenyl)imidazo[1,2-a]pyridin-3-yl)-1,3,4-oxadiazol-2-yl)methyl)-N-methylbenzothioamide] | 0.99 ± 0.15 | EC50 (human CAR LBD [1]): 0.162 µM
6 | 4.94 ± 0.9 | CN(C)C(=O)c1cc(Cc2nnc(-c3c(-c4ccc(Cl)cc4)nc4ccccn34)s2)ccc1Cl [Compound 7, 2-Chloro-5-((5-(2-(4-chlorophenyl)imidazo[1,2-a]pyridin-3-yl)-1,3,4-thiadiazol-2-yl)methyl)-N,N-dimethylbenzamide] | 0.5 ± 0.01 | –
7 | – | NC(=O)c1cc(Cn2cc(-c3c(-c4ccc(Cl)cc4)nc4cc(F)ccn34)nn2)ccc1Cl [Compound 9, 2-Chloro-5-((4-(2-(4-chlorophenyl)-7-fluoroimidazo[1,2-a]pyridin-3-yl)-1H-1,2,3-triazol-1-yl)methyl)benzamide] | – | PXR inverse agonism: decrease of basal activity in % (PXR [4]): (-72.03±0.3) %; PXR inverse agonism: decrease of basal activity in % (PXR [4]; listed as 9 (MI-883)): –72.03 ± 0.3%
8 | 8.04 ± 2.3 | CNC(=O)c1cc(Cn2cc(-c3c(-c4ccc(Cl)cc4)nc4c(F)cc(F)cn34)nn2)ccc1Cl [Compound 12, 2-Chloro-5-((4-(2-(4-chlorophenyl)-6,8-difluoroimidazo[1,2-a]pyridin-3-yl)-1H-1,2,3-triazol-1-yl)methyl)-N-methylbenzamide] | – | CAR TR-FRET (EC50, μM) (human CAR LBD [1]): nb
9 | – | COc1ccc(OC)c(-n2nnc(S(=O)(=O)c3ccc(NC(=O)CCOCCOCCOCCOCCn4cc(CNc5cccc6c5C(=O)N(C5CCC(=O)NC5=O)C6=O)nn4)cc3)c2C)c1 (centres unmarked) [Compound 37, N-(4-((1-(2,5-dimethoxyphenyl)-5-methyl-1H-1,2,3-triazol-4-yl)sulfonyl)phenyl)-1-(4-(((2-(2,6-dioxopiperidin-3-yl)-1,3-dioxoisoindolin-4-yl)amino)methyl)-1H-1,2,3-triazol-1-yl)-3,6,9,12-tetraoxapentadecan-15-amide] | – | PXR degradation (Western blot) (PXR [5]): mild effect on PXR degradation
10 | – | CC(C)[N+](C)(CCOC(=O)C1c2ccccc2Oc2ccccc21)C(C)C [Propantheline, reference compound] | – | half-life [6]: 28 ± 1 min
11 | – | N-(4-((1-(2,5-Dimethoxyphenyl)-5-methyl-1H-1,2,3-triazol-4-yl)sulfonyl)phenyl)-3-(2-(2-(4-(((2-(2,6-dioxopiperidin-3-yl)-1,3-dioxoisoindolin-4-yl)amino)methyl)-1H-1,2,3-triazol-1-yl)ethoxy)ethoxy)propenamide [Compound 35] | – | PXR degradation (Western blot) (PXR [5]): no effect on PXR degradation
